From patent US20230233569A1 (Revolution Medicines, Inc., priority 2020, published 2023)
Like-named read-outs stand apart in the source and are kept apart here.

Legend:
NCI-H358 (K-Ras G12C) = assay: CellTiter-Glo cell viability assay, 5-day treatment; format: cell-based; conditions: Homo sapiens, NCI-H358, 120 h, 5-day treatment; read-out: H358 Cell Viability assay data (K-Ras G12C, IC50)
Description: Protocol: CellTiter-Glo® Cell Viability Assay
Note—The following protocol describes a procedure for monitoring cell viability of K-Ras mutant cancer cell lines in response to a compound of the invention. Other RAS isoforms may be employed, though the number of cells to be seeded will vary based on cell line used.
(§1) Test compounds (132.5 nL) were directly dispensed into the assay plates containing cells. […] On day 5, assay plates and their contents were equilibrated to room temperature for approximately 30 minutes. […] Luminescence was measured using the PerkinElmer Enspire. Data were normalized by the following: (Sample signal/Avg. DMSO)*100. The data were fit using a four-parameter logistic fit.
as §1, with “nl)” for “nL)”

KRAS G12C = KRAS G12C (Homo sapiens, UniProt P01116+P62937, G12C); assay: Disruption of BRAF RBD interaction with Ras (FRET / MOA assay, with Cyclophilin A); format: biochemical
From the text: (§2) This protocol may also be executed substituting other Ras proteins or nucleotides.
(§3) The purpose of this biochemical assay was to measure the ability of test compounds to facilitate ternary complex formation between a nucleotide-loaded K-Ras isoform and Cyclophilin A; the resulting ternary complex disrupts binding to a BRAF^RBD construct, inhibiting K-Ras signaling through a RAF effector. Data is reported as IC50 values.
(§4) Compound was present in plate wells as a 10-point 3-fold dilution series starting at a final concentration of 30 μM. After incubation at 25° C. for 3 hours, a mixture of Anti-His Eu-W1024 and anti-GST allophycocyanin was then added to assay sample wells at final concentrations of 10 nM and 50 nM, respectively, and the reaction incubated for an additional 1.5 hours. […] Compounds that facilitate disruption of a K-Ras:RAF complex were identified as those eliciting a decrease in the TR-FRET ratio relative to DMSO control wells.
as §3, with “BRAF^RBDD” for “BRAF^RBD”

KRAS G12D = KRAS G12D (Homo sapiens, UniProt P01116+P62937, G12D); assay: as above; format: biochemical
From the text: as §2, §3, §4
as §3, with “BRAF^RBDD” for “BRAF^RBD”

KRAS G12V = KRAS G12V (Homo sapiens, UniProt P01116+P62937, G12V); assay: as above; format: biochemical
From the text: as §2, §3, §4
as §3, with “BRAF^RBDD” for “BRAF^RBD”

KRAS G12S = KRAS G12S (Homo sapiens, UniProt P01116+P62937, G12S); assay: as above; format: biochemical
From the text: as §2, §3, §4
as §3, with “BRAF^RBDD” for “BRAF^RBD”

KRAS G13C = KRAS G13C (Homo sapiens, UniProt P01116+P62937, G13C); assay: as above; format: biochemical
From the text: as §2, §3, §4
as §3, with “BRAF^RBDD” for “BRAF^RBD”

KRAS G13D = KRAS G13D (Homo sapiens, UniProt P01116+P62937, G13D); assay: as above; format: biochemical
From the text: as §2, §3, §4
as §3, with “BRAF^RBDD” for “BRAF^RBD”

NRAS G12C = NRAS G12C (Homo sapiens, UniProt P01111+P62937, G12C); assay: as above; format: biochemical
From the text: as §2, §3, §4
as §3, with “BRAF^RBDD” for “BRAF^RBD”

KRAS WT = KRAS WT (Homo sapiens, UniProt P01116+P62937); assay: as above; format: biochemical
From the text: as §2, §3, §4
as §3, with “BRAF^RBDD” for “BRAF^RBD”

[1] = KRAS G12V FRET data IC50, KRAS G12V
[2] = KRAS G13D FRET data IC50, KRAS G13D
[3] = NRAS G12C FRET data IC50, NRAS G12C
[4] = KRAS WT FRET data IC50, KRAS WT
[5] = read-out: KRAS G12C FRET data, IC50
[6] = read-out: KRAS G12D FRET data, IC50
[7] = KRAS G12V, read-out: KRAS G12V FRET data IC50
[8] = read-out: KRAS G12S FRET data, IC50
[9] = read-out: KRAS G13C FRET data, IC50
[10] = KRAS G13D, read-out: KRAS G13D FRET data IC50
[11] = NRAS G12C, read-out: NRAS G12C FRET data IC50
[12] = KRAS WT, read-out: KRAS WT FRET data IC50

Sequence of KRAS G12V (P01116 1-169 isoform P01116-2 G12V limits assumed): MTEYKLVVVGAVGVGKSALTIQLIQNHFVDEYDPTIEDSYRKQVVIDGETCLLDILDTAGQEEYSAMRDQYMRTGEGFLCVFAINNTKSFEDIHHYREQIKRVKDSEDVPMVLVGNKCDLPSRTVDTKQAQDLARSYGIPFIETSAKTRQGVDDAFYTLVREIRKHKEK
Sequence of KRAS G12V (P62937 whole entry): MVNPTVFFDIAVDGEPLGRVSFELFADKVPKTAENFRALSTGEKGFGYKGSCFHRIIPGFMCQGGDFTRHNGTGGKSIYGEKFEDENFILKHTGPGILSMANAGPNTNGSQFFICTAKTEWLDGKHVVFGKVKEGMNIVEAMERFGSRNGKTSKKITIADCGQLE
Sequence of KRAS G12S (P01116 1-169 isoform P01116-2 G12S limits assumed): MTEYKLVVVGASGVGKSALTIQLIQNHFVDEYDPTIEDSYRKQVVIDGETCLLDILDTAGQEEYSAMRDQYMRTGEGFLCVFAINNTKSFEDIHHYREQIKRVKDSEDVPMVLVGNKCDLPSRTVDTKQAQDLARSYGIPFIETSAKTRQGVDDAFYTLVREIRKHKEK
Sequence of KRAS G12S (P62937 whole entry): as the sequence (P62937 whole entry) above
Sequence of KRAS G12D (P01116 1-169 isoform P01116-2 G12D limits assumed): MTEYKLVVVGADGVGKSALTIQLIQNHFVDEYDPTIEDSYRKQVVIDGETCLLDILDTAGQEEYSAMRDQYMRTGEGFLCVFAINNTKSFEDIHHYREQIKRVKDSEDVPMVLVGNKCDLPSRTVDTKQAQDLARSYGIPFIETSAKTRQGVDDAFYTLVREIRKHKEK
Sequence of KRAS G12D (P62937 whole entry): as the sequence (P62937 whole entry) above
Sequence of KRAS G13C (P01116 1-169 isoform P01116-2 G13C): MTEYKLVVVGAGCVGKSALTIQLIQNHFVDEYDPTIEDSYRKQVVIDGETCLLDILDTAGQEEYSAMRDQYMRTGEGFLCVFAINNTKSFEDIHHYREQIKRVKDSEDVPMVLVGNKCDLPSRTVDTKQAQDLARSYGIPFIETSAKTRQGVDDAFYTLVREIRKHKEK
Sequence of KRAS G13C (P62937 whole entry): as the sequence (P62937 whole entry) above
Sequence of NRAS G12C (P01111 whole entry G12C): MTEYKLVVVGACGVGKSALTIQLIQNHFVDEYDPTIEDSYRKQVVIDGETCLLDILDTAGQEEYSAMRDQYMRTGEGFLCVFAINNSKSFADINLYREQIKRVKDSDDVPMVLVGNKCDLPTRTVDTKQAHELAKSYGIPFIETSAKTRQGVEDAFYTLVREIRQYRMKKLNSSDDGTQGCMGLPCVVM
Sequence of NRAS G12C (P62937 whole entry): as the sequence (P62937 whole entry) above
Sequence of KRAS G13D (P01116 1-169 isoform P01116-2 G13D limits assumed): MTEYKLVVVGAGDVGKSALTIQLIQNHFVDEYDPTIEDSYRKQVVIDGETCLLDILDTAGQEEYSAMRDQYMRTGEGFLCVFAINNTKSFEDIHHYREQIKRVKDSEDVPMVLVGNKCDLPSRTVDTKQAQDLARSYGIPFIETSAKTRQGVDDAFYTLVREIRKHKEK
Sequence of KRAS G13D (P62937 whole entry): as the sequence (P62937 whole entry) above
Sequence of KRAS WT (P01116 1-169 isoform P01116-2 limits assumed): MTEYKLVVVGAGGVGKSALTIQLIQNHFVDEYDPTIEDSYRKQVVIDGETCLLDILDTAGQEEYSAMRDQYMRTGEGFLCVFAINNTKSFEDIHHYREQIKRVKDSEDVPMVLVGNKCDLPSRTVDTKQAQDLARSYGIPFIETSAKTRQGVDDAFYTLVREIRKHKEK
Sequence of KRAS WT (P62937 whole entry): as the sequence (P62937 whole entry) above
Sequence of KRAS G12C (P01116 1-169 isoform P01116-2 G12C): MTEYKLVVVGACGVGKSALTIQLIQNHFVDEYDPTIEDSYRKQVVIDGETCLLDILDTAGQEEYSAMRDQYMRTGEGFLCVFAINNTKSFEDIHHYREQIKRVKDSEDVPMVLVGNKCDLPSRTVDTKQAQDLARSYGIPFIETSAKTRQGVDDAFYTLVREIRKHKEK
Sequence of KRAS G12C (P62937 whole entry): as the sequence (P62937 whole entry) above

| SMILES | IC50 (NCI-H358 (K-Ras G12C)) [nM] | IC50 (KRAS G12C; [5]) [nM] | IC50 (KRAS G12D; [6]) [nM] | IC50 (KRAS G12V; [7]) [nM] | IC50 (KRAS G12S; [8]) [nM] | IC50 (KRAS G13C; [9]) [nM] | IC50 (KRAS G13D; [10]) [nM] | IC50 (NRAS G12C; [11]) [nM] | IC50 (KRAS WT; [12]) [nM] | IC50 (KRAS G12C; KRAS G12C FRET data, IC50) [nM] | IC50 (KRAS G12D; KRAS G12D FRET data, IC50) [nM] | IC50 (KRAS G12V; [1]) [nM] | IC50 (KRAS G12S; KRAS G12S FRET data, IC50) [nM] | IC50 (KRAS G13C; KRAS G13C FRET data, IC50) [nM] | IC50 (KRAS G13D; [2]) [nM] | IC50 (NRAS G12C; [3]) [nM] | IC50 (KRAS WT; [4]) [nM] |
| --- | --- | --- | --- | --- | --- | --- | --- | --- | --- | --- | --- | --- | --- | --- | --- | --- | --- |
| CCn1c(-c2cnccc2COC)c2c3cc(ccc31)-c1cc(O)cc(c1)C[C@H](NC(=O)[C@H](C(C)C)N(C)C(=O)[C@H]1CCN(C)C1)C(=O)N1CCC[C@H](N1)C(=O)OCC(C)(C)C2 [Example A27, (2S)—N-[(8S,14S)-22-ethyl-4-hydroxy-21-[4-(methoxymethyl)pyridin-3-yl]-18,18-dimethyl-9,15-dioxo-16-oxa-10,22,28-triazapentacyclo[18.5.2.1^2,6.1^10,14.0^23,27]nonacosa-1(26),2,4,6(29),20,23(27),24-heptaen-8-yl]-3-methyl-2-{N-methyl-1-[(3S)-1-methylpyrrolidin-3-yl]formamido}butanamide] | 1000 to 10000 | – | – | – | – | – | – | – | – | 100 to 1000 | 100 to 1000 | 1000 to 10000 | 100 to 1000 | 10 to 100 | 10 to 100 | 100 to 1000 | 100 to 1000 |
| CCn1c(-c2cnccc2COC)c2c3cc(ccc31)-c1cc(O)cc(c1)C[C@H](NC(=O)[C@H](C(C)C)N(C)C(=O)[C@H]1CCN(S(=O)(=O)N3CC(N)C3)C1)C(=O)N1CCC[C@H](N1)C(=O)OCC(C)(C)C2 [Example A35] | 100 to 1000 | 100 to 1000 | 1000 to 10000 | 100 to 1000 | 100 to 1000 | 100 to 1000 | 100 to 1000 | 100 to 1000 | 100 to 1000 | – | – | – | – | – | – | – | – |
| CCn1c(-c2cnccc2COC)c2c3cc(ccc31)-c1cc(O)cc(c1)C[C@H](NC(=O)[C@H](C(C)C)N(C)C(=O)[C@H]1CCN(C(=O)N(C)C)C1)C(=O)N1CCC[C@H](N1)C(=O)OCC(C)(C)C2 [Example A42, (3S)-N3-[(1S)-1-{[(8S,14S)-22-ethyl-4-hydroxy-21-[4-(methoxymethyl)pyridin-3-yl]-18,18-dimethyl-9,15-dioxo-16-oxa-10,22,28-triazapentacyclo[18.5.2.1^2,6.1^10,14.0^23,27]nonacosa-1(26),2,4,6(29),20,23(27),24-heptaen-8-yl]carbamoyl}-2-methylpropyl]-N1,N1,N3-trimethylpyrrolidine-1,3-dicarboxamide] | 1000 to 10000 | – | – | – | – | – | – | – | – | 100 to 1000 | > 10000 | 1000 to 10000 | 1000 to 10000 | 1000 to 10000 | 1000 to 10000 | 1000 to 10000 | 1000 to 10000 |
| CCn1c(-c2cnccc2COC)c2c3cc(ccc31)-c1cc(O)cc(c1)C[C@H](NC(=O)[C@H](C(C)C)N1CCCCC1=O)C(=O)N1CCC[C@H](N1)C(=O)OCC(C)(C)C2 [Example A44] | 1000 to 10000 | 100 to 1000 | 1000 to 10000 | 100 to 1000 | 1000 to 10000 | 1000 to 10000 | 1000 to 10000 | 100 to 1000 | 100 to 1000 | – | – | – | – | – | – | – | – |

Now from value to molecule, other results behind:

| IC50 (NCI-H358 (K-Ras G12C)) [nM] | IC50 (KRAS G12C; [5]) [nM] | IC50 (KRAS G12D; [6]) [nM] | IC50 (KRAS G12V; [7]) [nM] | IC50 (KRAS G12S; [8]) [nM] | IC50 (KRAS G13C; [9]) [nM] | IC50 (KRAS G13D; [10]) [nM] | IC50 (NRAS G12C; [11]) [nM] | IC50 (KRAS WT; [12]) [nM] | SMILES | IC50 (KRAS G12C; KRAS G12C FRET data, IC50) [nM] | IC50 (KRAS G12D; KRAS G12D FRET data, IC50) [nM] | IC50 (KRAS G12V; [1]) [nM] | IC50 (KRAS G12S; KRAS G12S FRET data, IC50) [nM] | IC50 (KRAS G13C; KRAS G13C FRET data, IC50) [nM] | IC50 (KRAS G13D; [2]) [nM] | IC50 (NRAS G12C; [3]) [nM] | IC50 (KRAS WT; [4]) [nM] |
| --- | --- | --- | --- | --- | --- | --- | --- | --- | --- | --- | --- | --- | --- | --- | --- | --- | --- |
| > 10000 | 100 to 1000 | 100 to 1000 | 1000 to 10000 | 100 to 1000 | 100 to 1000 | 100 to 1000 | 100 to 1000 | 100 to 1000 | CCn1c(-c2cccnc2COC)c2c3cc(ccc31)-c1cc(O)cc(c1)C[C@H](NC(=O)[C@H](C(C)C)N(C)C(=O)[C@H]1CCNC1)C(=O)N1CCC[C@H](N1)C(=O)OCC(C)(C)C2 [Example A32] | – | – | – | – | – | – | – | – |
| 1000 to 10000 | – | 10 to 100 | 100 to 1000 | 10 to 100 | 10 to 100 | 10 to 100 | 10 to 100 | 10 to 100 | CCn1c(-c2cccnc2[C@H](C)OC)c2c3cc(ccc31)-c1cc(O)cc(c1)C[C@H](NC(=O)[C@H](C(C)C)N(C)C(=O)[C@@H]1CNC[C@@H]1C)C(=O)N1CCC[C@H](N1)C(=O)OCC(C)(C)C2 [Example A128] | – | – | – | – | – | – | – | – |
